These results are taken from US10231952B2, “Use of arginine vasopressin receptor antagonists for the treatment of prostate cancer” (UNIVERSITY OF MIAMI, priority 2014, dated 2019).

One test deals with 22Rv1, CWR-R1, PC3 cells. Kind of test: AVP stimulation of castration resistant prostate cancer cell proliferation (FIG. 9). Format: cell-based, human. To be noted: 1 nM AVP; six days. As to the method:
(§1) FIG. 9A-9D. […] (A) 22Rv1, (B) CWR-R1, (C) PC3, or (D) RWPE-1 cells were plated at 10,000 cells/well in 24 well dishes and then treated with vehicle or arginine vasopressin (AVP) at the indicated concentrations the following day. Media were changed every day. Cells were harvested six days post treatment. Data represent four experiments performed in triplicate and are plotted as fold (treatment/vehicle)±SEM. Significance was determined using a Student's t-test comparing to vehicle controls (**, p<0.01).

Another test concerns RWPE1 cells. Nature of the test: AVP effect on normal prostate epithelial cell proliferation. Format: cell-based, human. As to the method:
as §1
(§2) The effect of arginine vasopressin on the proliferation of a castration-resistant prostate cancer cell line (i.e., 22Rv1) was evaluated. Briefly, 22RV1 cells were treated with 1 nM, 10 nM or 1 μM arginine vasopressin (AVP) for six days followed by live cell counting.

A further test concerns ERK1/2 phosphorylation. Kind of test: Phospho-ERK1/2 immunoblot, AVP plus/minus Relcovaptan (FIG. 10). Format: cell-based, human. To be noted: 22Rv1 or CWR-R1; 1 nM AVP; 25 min. From the text:
FIG. 10. […] Lysates were immunoblotted for phospho-ERK1/2 and total ERK1/2.

Another test relates to 22Rv1 cells. Nature of the test: AVP treatment of 22Rv1 cells, live cell counting (Example 9). The class given is cell-based, human. To be noted: 1 nM, 10 nM or 1 μM AVP, six days. As to the method: as §2
Another test has as its system ERK phosphorylation. Kind of test: Total and phosphoERK after AVP stimulation of 22Rv1 with AVPR1a antagonist pretreatment (FIG. 18). Format: cell-based, human. To be noted: 10 nM AVP, 25 minutes. The protocol: Total and phosphoERK levels were assessed following stimulation of 22Rv1 with 10 nM AVP for 25 minutes and pretreatment with AVPR1a antagonist (or vehicle control).

Test [1] has as its system AVP type V1a and V2 receptors. The conditions noted are these: cited from earlier work.

“Also recorded” adds a separate entry of the source.

Take `NC(=O)CC[C@@H]1NC(=O)[C@H](Cc2ccccc2)NC(=O)[C@H](Cc2ccc(O)cc2)NC(=O)[C@@H](N)CSSC[C@@H](C(=O)N2CCC[C@H]2C(=O)N[C@@H](CCCN=C(N)N)C(=O)NCC(N)=O)NC(=O)[C@H](CC(N)=O)NC1=O` [AVP, arginine vasopressin]: in the test with 22Rv1, CWR-R1, PC3 cells, the PC cell proliferation entry is “increased PC cell proliferation; also recorded: stimulates castration resistant prostate cancer cell proliferation”. Moreover, the “growth of normal RWPE1 cells” value with RWPE1 cells (1 nM AVP, six days) is reported as “did not stimulate growth”. The RWPE1 cell proliferation entry in the test with RWPE1 cells (Example 9, data not shown) is recorded as “did not stimulate RWPE1 cell proliferation”. Also, the “proliferation of RWPE-1” value with RWPE1 cells (higher AVP doses) is listed as “Decreased proliferation”. Also, the “ERK 1/2 phosphorylation (activation)” value in the test with ERK1/2 phosphorylation is “activated ERK 1/2; also recorded: stimulates ERK1/2 phosphorylation”. For the same compound, the CRPC proliferation result in the test on 22Rv1 cells is recorded as “stimulated CRPC proliferation”. Moreover, the phosphoERK levels entry in the test with ERK phosphorylation is on record as “increased phosphoERK levels”.
Take `Cc1nc2c([nH]1)-c1ccccc1N(C(=O)c1ccc(NC(=O)c3ccccc3-c3ccccc3)cc1)CC2` [Conivaptan]: the “AVP receptor blockade / selectivity” value in test [1] was “non-selectively blocks both AVP type V1a and V2 receptors”.
